The target of one test is Adenosine kinase (Homo sapiens, UniProt P55263).
Test [1] deals with High affinity nerve growth factor receptor (Homo sapiens, UniProt P04629).
The target of test [2] is T1, DNA replication licensing factor MCM4 (Homo sapiens, UniProt P33991).
T1 sequence (P33991 whole entry): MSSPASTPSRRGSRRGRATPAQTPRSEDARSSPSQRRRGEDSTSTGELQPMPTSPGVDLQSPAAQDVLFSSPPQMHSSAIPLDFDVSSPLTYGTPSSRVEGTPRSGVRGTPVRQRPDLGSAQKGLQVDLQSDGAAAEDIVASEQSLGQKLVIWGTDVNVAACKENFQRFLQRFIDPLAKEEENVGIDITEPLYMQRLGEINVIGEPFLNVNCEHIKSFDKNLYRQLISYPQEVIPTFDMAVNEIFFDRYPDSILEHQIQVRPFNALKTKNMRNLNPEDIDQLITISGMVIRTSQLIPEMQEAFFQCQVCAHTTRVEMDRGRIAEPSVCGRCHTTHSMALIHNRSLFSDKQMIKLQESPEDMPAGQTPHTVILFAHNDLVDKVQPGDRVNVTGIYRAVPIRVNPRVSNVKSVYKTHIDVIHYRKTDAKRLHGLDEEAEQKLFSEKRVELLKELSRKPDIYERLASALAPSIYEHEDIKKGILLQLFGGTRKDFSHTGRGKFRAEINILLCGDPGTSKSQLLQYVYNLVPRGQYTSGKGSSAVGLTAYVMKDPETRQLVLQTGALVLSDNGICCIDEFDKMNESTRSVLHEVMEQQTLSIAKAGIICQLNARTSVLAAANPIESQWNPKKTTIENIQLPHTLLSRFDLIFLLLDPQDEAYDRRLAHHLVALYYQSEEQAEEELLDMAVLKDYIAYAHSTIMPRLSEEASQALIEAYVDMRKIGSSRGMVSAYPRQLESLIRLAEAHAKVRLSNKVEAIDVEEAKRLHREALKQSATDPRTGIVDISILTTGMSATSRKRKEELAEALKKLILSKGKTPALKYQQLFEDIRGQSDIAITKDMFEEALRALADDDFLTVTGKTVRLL

The target in test [3] is Protein kinase C beta type (Homo sapiens, UniProt P05771).
Sequence of Protein kinase C beta type (P05771 whole entry): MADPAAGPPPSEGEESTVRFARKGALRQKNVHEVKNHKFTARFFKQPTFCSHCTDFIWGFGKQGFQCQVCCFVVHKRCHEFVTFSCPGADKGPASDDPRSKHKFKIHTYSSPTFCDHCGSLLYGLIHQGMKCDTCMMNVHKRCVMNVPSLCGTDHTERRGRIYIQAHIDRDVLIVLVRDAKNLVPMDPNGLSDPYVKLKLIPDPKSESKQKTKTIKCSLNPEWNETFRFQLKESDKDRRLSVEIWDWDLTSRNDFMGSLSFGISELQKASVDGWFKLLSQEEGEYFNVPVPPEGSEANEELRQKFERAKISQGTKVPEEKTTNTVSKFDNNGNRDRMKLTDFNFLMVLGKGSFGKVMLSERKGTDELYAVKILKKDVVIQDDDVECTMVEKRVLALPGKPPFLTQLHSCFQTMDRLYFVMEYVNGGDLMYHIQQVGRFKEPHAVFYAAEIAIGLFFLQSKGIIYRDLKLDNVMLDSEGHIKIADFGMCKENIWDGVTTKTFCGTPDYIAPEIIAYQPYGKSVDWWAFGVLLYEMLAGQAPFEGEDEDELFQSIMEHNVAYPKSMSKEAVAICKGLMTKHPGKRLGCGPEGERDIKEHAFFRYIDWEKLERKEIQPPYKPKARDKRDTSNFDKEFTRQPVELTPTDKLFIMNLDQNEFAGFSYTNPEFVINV
Test [4] deals with cAMP-dependent protein kinase catalytic subunit alpha (Homo sapiens, UniProt P17612).
Test [5] has as its target Tyrosine-protein kinase HCK (Homo sapiens, UniProt P08631).
The target of test [6] is T2, Serine/threonine-protein kinase TAO1 (Homo sapiens, UniProt Q7L7X3).
T2 sequence (Q7L7X3 whole entry): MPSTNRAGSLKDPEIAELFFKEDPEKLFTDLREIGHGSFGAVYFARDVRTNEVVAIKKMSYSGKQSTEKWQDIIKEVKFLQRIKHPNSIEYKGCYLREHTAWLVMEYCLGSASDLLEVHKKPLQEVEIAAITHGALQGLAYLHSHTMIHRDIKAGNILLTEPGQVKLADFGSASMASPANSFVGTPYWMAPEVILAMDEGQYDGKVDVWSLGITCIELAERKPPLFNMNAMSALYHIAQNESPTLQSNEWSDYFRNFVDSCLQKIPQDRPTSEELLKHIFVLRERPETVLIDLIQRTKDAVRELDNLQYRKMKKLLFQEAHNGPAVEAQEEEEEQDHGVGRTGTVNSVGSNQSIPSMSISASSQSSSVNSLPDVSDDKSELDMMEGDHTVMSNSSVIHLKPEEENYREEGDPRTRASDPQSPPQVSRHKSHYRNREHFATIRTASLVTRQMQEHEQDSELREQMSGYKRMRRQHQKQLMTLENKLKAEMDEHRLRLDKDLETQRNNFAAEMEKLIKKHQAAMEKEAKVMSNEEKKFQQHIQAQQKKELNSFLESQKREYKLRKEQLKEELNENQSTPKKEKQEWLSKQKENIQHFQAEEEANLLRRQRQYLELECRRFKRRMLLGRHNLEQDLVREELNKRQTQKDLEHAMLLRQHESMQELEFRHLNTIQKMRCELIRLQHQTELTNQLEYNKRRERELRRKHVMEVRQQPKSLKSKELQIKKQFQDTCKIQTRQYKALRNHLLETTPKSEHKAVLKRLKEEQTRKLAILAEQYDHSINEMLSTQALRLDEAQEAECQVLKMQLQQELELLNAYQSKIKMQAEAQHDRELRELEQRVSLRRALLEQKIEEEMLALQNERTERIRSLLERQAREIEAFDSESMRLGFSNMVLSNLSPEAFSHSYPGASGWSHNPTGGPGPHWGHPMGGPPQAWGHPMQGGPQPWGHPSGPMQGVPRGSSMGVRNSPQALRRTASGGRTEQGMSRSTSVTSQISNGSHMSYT

Test [7] addresses T3, Inhibitor of nuclear factor kappa-B kinase subunit epsilon (Homo sapiens, UniProt Q14164).
T3 sequence (Q14164 whole entry): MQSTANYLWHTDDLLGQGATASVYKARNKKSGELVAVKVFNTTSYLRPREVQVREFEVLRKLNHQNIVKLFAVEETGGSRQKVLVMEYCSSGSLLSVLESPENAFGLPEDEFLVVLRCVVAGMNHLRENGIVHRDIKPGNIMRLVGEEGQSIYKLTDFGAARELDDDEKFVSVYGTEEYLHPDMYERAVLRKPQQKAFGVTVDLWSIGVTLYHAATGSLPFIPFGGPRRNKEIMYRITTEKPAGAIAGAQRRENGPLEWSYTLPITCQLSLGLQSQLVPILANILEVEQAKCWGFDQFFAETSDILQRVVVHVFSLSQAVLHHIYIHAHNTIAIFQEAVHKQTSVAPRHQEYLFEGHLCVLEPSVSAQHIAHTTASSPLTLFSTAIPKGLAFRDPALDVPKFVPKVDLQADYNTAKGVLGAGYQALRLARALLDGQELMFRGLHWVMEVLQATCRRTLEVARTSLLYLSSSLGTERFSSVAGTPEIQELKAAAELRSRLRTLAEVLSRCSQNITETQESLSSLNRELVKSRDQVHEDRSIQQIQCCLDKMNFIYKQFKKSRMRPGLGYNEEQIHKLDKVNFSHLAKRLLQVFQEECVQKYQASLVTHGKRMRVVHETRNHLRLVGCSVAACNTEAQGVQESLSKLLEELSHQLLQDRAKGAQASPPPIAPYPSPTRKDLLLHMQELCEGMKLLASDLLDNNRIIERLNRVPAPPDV

The target in test [8] is Mitogen-activated protein kinase 3 (Homo sapiens, UniProt P27361).
Sequence of Mitogen-activated protein kinase 3 (P27361 whole entry): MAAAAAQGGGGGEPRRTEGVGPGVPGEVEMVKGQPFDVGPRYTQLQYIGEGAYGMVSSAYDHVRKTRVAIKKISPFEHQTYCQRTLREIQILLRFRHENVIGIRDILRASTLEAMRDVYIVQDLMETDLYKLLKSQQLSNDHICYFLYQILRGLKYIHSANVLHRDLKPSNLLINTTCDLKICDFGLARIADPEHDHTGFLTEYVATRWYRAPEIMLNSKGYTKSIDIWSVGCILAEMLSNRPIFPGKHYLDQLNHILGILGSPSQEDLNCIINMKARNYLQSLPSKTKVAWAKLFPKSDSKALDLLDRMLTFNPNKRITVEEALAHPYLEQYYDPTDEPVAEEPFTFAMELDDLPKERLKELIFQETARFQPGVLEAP
Test [9] addresses Cyclin-dependent kinase 7 (Homo sapiens, UniProt P50613).
Another test addresses GTP-binding protein 4 (Homo sapiens, UniProt Q9BZE4).

Active and inactive are the calls of the source. For most assays here, no stated cut-off is given here; in the data, actives have a measured Kd and inactives only a lower limit. A value given as a limit tells only on which side of the number the result lay.

Sequence of Tyrosine-protein kinase HCK (P08631 whole entry): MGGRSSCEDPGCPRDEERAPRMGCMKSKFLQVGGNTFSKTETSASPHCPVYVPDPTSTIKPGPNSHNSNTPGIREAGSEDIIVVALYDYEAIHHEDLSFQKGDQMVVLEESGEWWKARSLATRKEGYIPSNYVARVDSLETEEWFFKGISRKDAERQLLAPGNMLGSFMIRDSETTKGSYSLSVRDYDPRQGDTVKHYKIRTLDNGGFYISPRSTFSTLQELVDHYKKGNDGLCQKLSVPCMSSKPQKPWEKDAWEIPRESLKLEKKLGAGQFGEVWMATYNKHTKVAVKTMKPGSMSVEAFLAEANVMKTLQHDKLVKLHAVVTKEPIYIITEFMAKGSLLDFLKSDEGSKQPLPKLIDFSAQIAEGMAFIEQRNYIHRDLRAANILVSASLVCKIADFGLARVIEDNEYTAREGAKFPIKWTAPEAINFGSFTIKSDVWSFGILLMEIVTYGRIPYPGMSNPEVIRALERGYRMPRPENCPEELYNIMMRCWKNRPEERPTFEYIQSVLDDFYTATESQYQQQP
Sequence of Cyclin-dependent kinase 7 (P50613 whole entry): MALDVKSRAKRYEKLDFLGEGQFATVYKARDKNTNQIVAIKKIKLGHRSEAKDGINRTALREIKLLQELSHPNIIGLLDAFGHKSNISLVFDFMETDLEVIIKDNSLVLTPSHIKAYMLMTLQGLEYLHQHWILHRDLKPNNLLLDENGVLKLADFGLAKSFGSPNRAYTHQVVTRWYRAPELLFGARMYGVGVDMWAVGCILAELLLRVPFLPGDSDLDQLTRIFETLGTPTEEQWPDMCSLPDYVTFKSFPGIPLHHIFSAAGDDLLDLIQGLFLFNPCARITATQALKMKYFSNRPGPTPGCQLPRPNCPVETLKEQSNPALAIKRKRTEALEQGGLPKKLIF
Sequence of High affinity nerve growth factor receptor (P04629 whole entry): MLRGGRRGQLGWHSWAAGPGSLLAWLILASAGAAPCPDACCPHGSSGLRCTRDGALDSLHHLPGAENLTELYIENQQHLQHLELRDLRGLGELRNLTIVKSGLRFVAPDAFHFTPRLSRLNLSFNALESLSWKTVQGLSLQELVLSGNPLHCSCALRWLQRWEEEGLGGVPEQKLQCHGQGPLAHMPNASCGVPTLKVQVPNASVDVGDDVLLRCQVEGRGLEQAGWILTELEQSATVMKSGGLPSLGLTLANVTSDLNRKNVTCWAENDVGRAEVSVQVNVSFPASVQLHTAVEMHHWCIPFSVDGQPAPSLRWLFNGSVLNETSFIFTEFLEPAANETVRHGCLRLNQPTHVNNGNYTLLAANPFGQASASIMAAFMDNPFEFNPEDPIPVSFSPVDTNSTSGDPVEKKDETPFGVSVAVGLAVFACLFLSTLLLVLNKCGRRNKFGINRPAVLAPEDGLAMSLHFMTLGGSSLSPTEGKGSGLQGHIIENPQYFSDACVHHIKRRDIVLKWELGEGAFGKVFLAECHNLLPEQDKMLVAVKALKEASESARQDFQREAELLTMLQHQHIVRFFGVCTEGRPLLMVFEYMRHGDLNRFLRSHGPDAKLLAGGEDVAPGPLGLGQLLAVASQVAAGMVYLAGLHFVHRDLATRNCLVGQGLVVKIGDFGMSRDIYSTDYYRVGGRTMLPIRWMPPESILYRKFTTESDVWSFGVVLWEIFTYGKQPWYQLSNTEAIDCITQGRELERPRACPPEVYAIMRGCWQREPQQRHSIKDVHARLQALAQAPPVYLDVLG
Sequence of Adenosine kinase (P55263 whole entry): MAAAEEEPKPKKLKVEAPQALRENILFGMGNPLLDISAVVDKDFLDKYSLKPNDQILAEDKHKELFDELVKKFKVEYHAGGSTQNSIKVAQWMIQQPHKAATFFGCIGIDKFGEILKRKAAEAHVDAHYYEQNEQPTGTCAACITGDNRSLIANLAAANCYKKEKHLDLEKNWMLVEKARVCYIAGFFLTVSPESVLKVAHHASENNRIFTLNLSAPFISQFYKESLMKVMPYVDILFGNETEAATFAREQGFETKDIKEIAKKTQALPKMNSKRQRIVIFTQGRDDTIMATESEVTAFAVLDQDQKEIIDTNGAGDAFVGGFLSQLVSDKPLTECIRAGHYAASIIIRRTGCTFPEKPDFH

Broadly, the Kd is a measure of binding affinity in units of concentration. For the compound `COc1cc2c(Nc3ccc(Cl)c(Cl)c3F)ncnc2cc1OC[C@@H]1C[C@@H]2CN(C)C[C@@H]2C1` [TESEVATINIB], the Kd was > 30 µM (inactive) on Adenosine kinase; > 30 µM (inactive) in test [1]; > 30 µM (inactive) in test [2]; > 30 µM (inactive) in test [3]; > 30 µM (inactive) in test [4]; 1.16 µM (active) in test [5]. Besides, the Kd (in test [6]; in [7]; in test [8]; in [9]; at GTP-binding protein 4) was > 30 µM (inactive) in each case.

Regarding `O=C(Cc1ccc(-c2ccc(OCCN3CCOCC3)cc2)cn1)NCc1ccccc1` [TIRBANIBULIN], the Kd (at Adenosine kinase; in test [1]; in test [2]; in [3]; in test [4]; in test [5]) was > 30 µM (inactive) each time. In addition, the Kd (in test [6]; in test [7]; in test [8]; in [9]; on GTP-binding protein 4) was > 30 µM (inactive) throughout.

On to `O=C1NC(=O)[C@@H](c2cn3c4c(cccc24)CCC3)[C@@H]1c1c[nH]c2ccccc12` [TIVANTINIB], for which the Kd (on Adenosine kinase; in test [1]; in [2]; in [3]; in test [4]; in [5]) was > 30 µM (inactive) each time. Also, the Kd (in [6]; in test [7]; in test [8]; in [9]; on GTP-binding protein 4) was > 30 µM (inactive) each time.

For the compound `C[C@@H](NC(=O)c1ncnc(N)c1Cl)c1ncc(C(=O)Nc2cc(C(F)(F)F)c(Cl)cn2)s1` [TOVORAFENIB], the Kd (on Adenosine kinase; in test [1]; in test [2]; in test [3]; in test [4]; in test [5]) was > 30 µM (inactive) in each case. The Kd (in [6]; in test [7]; in test [8]; in test [9]; at GTP-binding protein 4) was > 30 µM (inactive) throughout.

For `Cc1cc(Nc2ncnc3ccc(NC4=NC(C)(C)CO4)cc23)ccc1Oc1ccn2ncnc2c1` [TUCATINIB], the Kd (at Adenosine kinase; in test [1]; in test [2]; in [3]; in test [4]; in test [5]) was > 30 µM (inactive) throughout. In addition, the Kd (in test [6]; in test [7]; in [8]; in [9]; on GTP-binding protein 4) was > 30 µM (inactive) throughout.

In the case of `C[C@@H](N)c1ccc(C(=O)Nc2ccnc3[nH]ccc23)cc1` [Y-39983], the Kd on Adenosine kinase was > 30 µM (inactive); in test [1], > 30 µM (inactive); in test [2] it was > 30 µM (inactive); in [3], 6.03 µM (active); in test [4] it was 23.2 µM (active); in [5] it was > 30 µM (inactive). Further, the Kd is 2.03 µM (active) in test [6]; > 30 µM (inactive) in test [7]; > 30 µM (inactive) in test [8]; > 30 µM (inactive) in [9]; > 30 µM (inactive) at GTP-binding protein 4.
